Data reported in the NIST ThermoML archive (doi:10.1016/j.jct.2004.01.006).
± gives the expanded uncertainty stated by the source.

Experiment: Molar enthalpy of transition or fusion
Conditions: Crystal; Adiabatic calorimetry

O=Cc1ccc(Cl)cc1Cl [2,4-dichlorobenzaldehyde]
Molar enthalpy of transition or fusion: 4.892 ± 0.0167 kcal/mol
